Data: ChEMBL document CHEMBL4359931, “Synthesis, biological evaluation and molecular docking studies of new amides of 4-bromothiocolchicine as anticancer agents” (Bioorg Med Chem, 2019)
Calls of active or inactive are those of the source. No cut-off for these calls is given here.

Columns and labels:
MCF7 [1] = assay: Cell cycle arrest in human MCF7 cells assessed as accumulation in subG1 phase at 5 times of antiproliferative IC50 incubated for 24 hrs by propidium iodide based flow cytometry (reference value: 7.79 %); format: functional
MCF7 [2] = assay: Cell cycle arrest in human MCF7 cells assessed as accumulation in G2 phase at 5 times of antiproliferative IC50 incubated for 48 hrs by propidium iodide based flow cytometry (reference value: 16 %); format: functional
[3] = Selectivity index, ratio of IC50 of mouse BALB/3T3 cells to IC50 of human LoVo/DX cells; format: toxicity; details: BALB/3T3 cells versus LoVo/DX cells, read-out: Ratio IC50
MCF7 [4] = assay: Cell cycle arrest in human MCF7 cells assessed as accumulation in G1 phase at 5 times of antiproliferative IC50 incubated for 24 hrs by propidium iodide based flow cytometry (reference value: 49.9 %); format: functional
LoVo = assay: Antiproliferative activity against human LoVo cells assessed as reduction in cell viability incubated for 120 hrs by MTT assay; format: functional, cell-based
A549 = assay: Antiproliferative activity against human A549 cells assessed as reduction in cell viability incubated for 120 hrs by MTT assay; format: functional, cell-based; details: A549, 120 h
[5] = Cell cycle arrest in human ALL5 cells assessed as accumulation in G1 phase at 5 times of antiproliferative IC50 incubated for 48 hrs by propidium iodide based flow cytometry (reference value: 67.4 %); format: functional
[6] = Cell cycle arrest in human ALL5 cells assessed as accumulation in S phase at 5 times of antiproliferative IC50 incubated for 72 hrs by propidium iodide based flow cytometry (reference value: 13.5 %); format: functional
[7] = Cell cycle arrest in human ALL5 cells assessed as accumulation in S phase at 5 times of antiproliferative IC50 incubated for 48 hrs by propidium iodide based flow cytometry (reference value: 10.3 %); format: functional
MCF7 [8] = assay: Cell cycle arrest in human MCF7 cells assessed as accumulation in G1 phase at 5 times of antiproliferative IC50 incubated for 72 hrs by propidium iodide based flow cytometry (reference value: 58 %); format: functional
Homo sapiens [9] = species on record: Homo sapiens; assay: Induction of cell cycle arrest in human ALL5 cells assessed as increase in 4 N DNA at 5 times of antiproliferative IC50 incubated for 48 hrs by propidium iodide based flow cytometry; format: functional
[10] = Selectivity index, ratio of IC50 of mouse BALB/3T3 cells to IC50 of human A549 cells
[11] = Cell cycle arrest in human ALL5 cells assessed as accumulation in subG1 phase at 5 times of antiproliferative IC50 incubated for 72 hrs by propidium iodide based flow cytometry (reference value: 15.5 %); format: functional
[12] = Resistance index, ratio of IC50 of human LoVo/DX cells to IC50 of human LoVo cells; format: functional
[13] = Cell cycle arrest in human ALL5 cells assessed as accumulation in subG1 phase at 5 times of antiproliferative IC50 incubated for 48 hrs by propidium iodide based flow cytometry (reference value: 11 %); format: functional
[14] = Cell cycle arrest in human ALL5 cells assessed as accumulation in G1 phase at 5 times of antiproliferative IC50 incubated for 24 hrs by propidium iodide based flow cytometry (reference value: 68.1 %); format: functional
MCF7 [15] = assay: Cell cycle arrest in human MCF7 cells assessed as accumulation in S phase at 5 times of antiproliferative IC50 incubated for 48 hrs by propidium iodide based flow cytometry (reference value: 34 %); format: functional
[16] = Cell cycle arrest in human ALL5 cells assessed as accumulation in subG1 phase at 5 times of antiproliferative IC50 incubated for 24 hrs by propidium iodide based flow cytometry (reference value: 10.5 %); format: functional
MCF7 [17] = assay: Antiproliferative activity against human MCF7 cells assessed as reduction in cell viability incubated for 120 hrs by MTT assay; format: functional, cell-based; details: MCF7, 120 h
[18] = Selectivity index, ratio of IC50 of mouse BALB/3T3 cells to IC50 of human LoVo cells; format: toxicity; details: BALB/3T3 cells versus LoVo cells, read-out: Ratio IC50
[19] = Cell cycle arrest in human ALL5 cells assessed as accumulation in G2 phase at 5 times of antiproliferative IC50 incubated for 48 hrs by propidium iodide based flow cytometry (reference value: 11.2 %); format: functional
MCF7 [20] = assay: Cell cycle arrest in human MCF7 cells assessed as accumulation in S phase at 5 times of antiproliferative IC50 incubated for 72 hrs by propidium iodide based flow cytometry (reference value: 19.8 %); format: functional
Homo sapiens [21] = species on record: Homo sapiens; assay: Induction of apoptosis in human ALL5 cells assessed as reduction in 116 kDa PARP expression at 26.5 uM incubated for 24 and 48 hrs by immunoblot analysis; format: functional, cell-based
Homo sapiens [22] = species on record: Homo sapiens; assay: Induction of apoptosis in human ALL5 cells assessed as increase in 85 kDa PARP expression at 26.5 uM incubated for 24 and 48 hrs by immunoblot analysis; format: functional, cell-based
[23] = Antiproliferative activity against human LoVo/DX cells assessed as reduction in cell viability incubated for 120 hrs by MTT assay; format: functional, cell-based
[24] = Selectivity index, ratio of IC50 of mouse BALB/3T3 cells to IC50 of human MCF7 cells; format: toxicity; details: BALB/3T3 cells versus MCF7 cells, read-out: Ratio IC50
MCF7 [25] = assay: Cell cycle arrest in human MCF7 cells assessed as accumulation in G2 phase at 5 times of antiproliferative IC50 incubated for 24 hrs by propidium iodide based flow cytometry (reference value: 22.4 %); format: functional
[26] = Selectivity index, ratio of IC50 of mouse BALB/3T3 cells to IC50 of human ALL5 cells
[27] = Antiproliferative activity against human ALL5 cells assessed as reduction in cell viability incubated for 120 hrs by MTT assay; format: functional, cell-based; details: ALL5, 120 h
MCF7 [28] = assay: Cell cycle arrest in human MCF7 cells assessed as accumulation in G2 phase at 5 times of antiproliferative IC50 incubated for 72 hrs by propidium iodide based flow cytometry (reference value: 18.6 %); format: functional
Homo sapiens [29] = species on record: Homo sapiens; assay: Induction of cell cycle arrest in human ALL5 cells assessed as increase in 4 N DNA at 5 times of antiproliferative IC50 incubated for 24 hrs by propidium iodide based flow cytometry; format: functional
BALB/3T3 = assay: Antiproliferative activity against mouse BALB/3T3 cells assessed as reduction in cell viability incubated for 120 hrs by MTT assay; format: cell-based; details: BALB/3T3, 120 h
[30] = Cell cycle arrest in human ALL5 cells assessed as accumulation in S phase at 5 times of antiproliferative IC50 incubated for 24 hrs by propidium iodide based flow cytometry (reference value: […]); format: functional
Homo sapiens [31] = species on record: Homo sapiens; assay: Induction of cell death in human ALL5 cells assessed as decrease in 4 N DNA at 5 times of antiproliferative IC50 incubated for 72 hrs by propidium iodide based flow cytometry; format: functional
MCF7 [32] = assay: Cell cycle arrest in human MCF7 cells assessed as accumulation in G1 phase at 5 times of antiproliferative IC50 incubated for 48 hrs by propidium iodide based flow cytometry (reference value: 40.8 %); format: functional
MCF7 [33] = assay: Cell cycle arrest in human MCF7 cells assessed as accumulation in S phase at 5 times of antiproliferative IC50 incubated for 24 hrs by propidium iodide based flow cytometry (reference value: 19.9 %); format: functional
[34] = Cell cycle arrest in human ALL5 cells assessed as accumulation in G2 phase at 5 times of antiproliferative IC50 incubated for 72 hrs by propidium iodide based flow cytometry (reference value: 11.3 %); format: functional
MCF7 [35] = assay: Cell cycle arrest in human MCF7 cells assessed as accumulation in subG1 phase at 5 times of antiproliferative IC50 incubated for 48 hrs by propidium iodide based flow cytometry (reference value: 9.19 %); format: functional
MCF7 [36] = assay: Cell cycle arrest in human MCF7 cells assessed as accumulation in subG1 phase at 5 times of antiproliferative IC50 incubated for 72 hrs by propidium iodide based flow cytometry (reference value: 3.59 %); format: functional
[37] = Cell cycle arrest in human ALL5 cells assessed as accumulation in G2 phase at 5 times of antiproliferative IC50 incubated for 24 hrs by propidium iodide based flow cytometry (reference value: 10.6 %); format: functional
[38] = Cell cycle arrest in human ALL5 cells assessed as accumulation in G1 phase at 5 times of antiproliferative IC50 incubated for 72 hrs by propidium iodide based flow cytometry (reference value: 59.7 %); format: functional
Homo sapiens [39] = species on record: Homo sapiens; assay: Induction of apoptosis in human ALL5 cells assessed as reduction in 116 kDa PARP expression at 43 uM incubated for 24 and 48 hrs by immunoblot analysis; format: functional, cell-based
Homo sapiens [40] = species on record: Homo sapiens; assay: Induction of apoptosis in human ALL5 cells assessed as increase in 85 kDa PARP expression at 43 uM incubated for 48 hrs by immunoblot analysis; format: functional, cell-based

COCC(=O)N[C@H]1CCc2c(Br)c(OC)c(OC)c(OC)c2-c2ccc(SC)c(=O)cc21
Activity (MCF7 [1]): 6.3%
Activity (MCF7 [2]): 54.3%
selectivity ratio [3]: 0.2
Activity (MCF7 [4]): 9.68%
IC50 (LoVo): 7.6 nM
IC50 (A549): 10.2 nM
Activity [5]: 35%
Activity [6]: 25%
Activity [7]: 15.3%
Activity (MCF7 [8]): 11.9%
Activity (Homo sapiens [9]): Active
Ratio IC50 [10]: 1.1
Activity [11]: 36.8%
Ratio IC50 [12]: 9.3
Activity [13]: 29.1%
Activity [14]: 52.3%
Activity (MCF7 [15]): 20.3%
Activity [16]: 17.1%
IC50 (MCF7 [17]): 11.4 nM
selectivity ratio [18]: 1.5
Activity [19]: 20.6%
Activity (MCF7 [20]): 7.98%
Activity (Homo sapiens [21]): Active
Activity (Homo sapiens [22]): Active
IC50 [23]: 71.2 nM
selectivity ratio [24]: 1
Activity (MCF7 [25]): 74.7%
Ratio IC50 [26]: 2.2
IC50 [27]: 5.3 nM
Activity (MCF7 [28]): 65%
Activity (Homo sapiens [29]): Active
IC50 (BALB/3T3): 11.4 nM
Activity [30]: 14.1%
Activity (Homo sapiens [31]): Active
Activity (MCF7 [32]): 11.9%
Activity (MCF7 [33]): 9.28%
Activity [34]: 8.92%
Activity (MCF7 [35]): 13.5%
Activity (MCF7 [36]): 15.1%
Activity [37]: 16.5%
Activity [38]: 29.3%

COc1cc2c(c(OC)c1OC)-c1ccc(OC)c(=O)cc1[C@@H](NC(C)=O)CC2 [COLCHICINE]
Activity (MCF7 [1]): 5.51%
Activity (MCF7 [2]): 68.3%
Activity (Homo sapiens [39]): Active
Activity (MCF7 [4]): 9.33%
Activity [5]: 33.2%
Activity [6]: 17.1%
Activity [7]: 17.1%
Activity (MCF7 [8]): 16%
Activity (Homo sapiens [9]): Active
Activity [11]: 52.1%
Activity [13]: 27.4%
Activity [14]: 54%
Activity (MCF7 [15]): 7.86%
Activity [16]: 19.7%
Activity [19]: 22.3%
Activity (MCF7 [20]): 7.4%
Activity (MCF7 [25]): 72.2%
IC50 [27]: 8.6 nM
Activity (MCF7 [28]): 64%
Activity (Homo sapiens [29]): Active
Activity [30]: 12%
Activity (Homo sapiens [31]): Active
Activity (MCF7 [32]): 14.5%
Activity (MCF7 [33]): 13%
Activity [34]: 9.05%
Activity (MCF7 [35]): 9.33%
Activity (MCF7 [36]): 12.6%
Activity (Homo sapiens [40]): Active
Activity [37]: 14.4%
Activity [38]: 21.7%
